Experimental data from ChEMBL document CHEMBL5665443, “Enzyme Inhibitor Single Concentration assay results for EUbOPEN Chemogenomics Library” (2024).

Tests used:
[1] = target: Methyl-CpG-binding domain protein 4 (Homo sapiens) (UniProt O95243); conditions: Hit No;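 note: MBD4 activity read as fluorescence at 594 nm from cleavage and release of a quenched duplex DNA oligonucleotide, with APE1 coupled to incise the strand and raise turnover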
Description: Inhibition of MBD4 by quantifying inhibition of MBD4-mediated cleavage and dissociation of quenched duplex DNA oligonucleotides, measured as fluorescence at 594 nm. To generate a functional strand incision and increase turn-over this assay is coupled to APE1.

[2] = target: T1, Adenine DNA glycosylase (Homo sapiens) (UniProt Q9UIF7); conditions: Hit No;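 note: human MUTYH activity read as 594 nm fluorescence from cleavage and release of a quenched DNA duplex, coupled with APE1 for strand incision, lower signal meaning inhibition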
T1 sequence (whole entry): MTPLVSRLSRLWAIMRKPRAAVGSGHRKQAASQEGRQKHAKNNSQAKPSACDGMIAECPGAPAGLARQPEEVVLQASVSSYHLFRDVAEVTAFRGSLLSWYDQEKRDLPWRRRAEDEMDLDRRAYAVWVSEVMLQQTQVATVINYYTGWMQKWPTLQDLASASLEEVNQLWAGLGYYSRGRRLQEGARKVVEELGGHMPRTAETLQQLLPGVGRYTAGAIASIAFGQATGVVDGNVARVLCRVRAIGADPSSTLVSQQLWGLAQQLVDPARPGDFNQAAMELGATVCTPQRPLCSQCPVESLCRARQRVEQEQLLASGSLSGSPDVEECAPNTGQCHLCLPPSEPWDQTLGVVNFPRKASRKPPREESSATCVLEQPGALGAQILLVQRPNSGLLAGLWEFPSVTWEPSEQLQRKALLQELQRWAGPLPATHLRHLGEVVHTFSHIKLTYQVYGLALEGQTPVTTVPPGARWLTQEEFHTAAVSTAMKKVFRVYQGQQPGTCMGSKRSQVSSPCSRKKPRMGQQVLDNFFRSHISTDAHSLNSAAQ
Description: Inhibition of MUTYH by quantifying inhibition of MUTYH-mediated cleavage and dissociation of quenched duplex DNA oligonucleotides, measured as fluorescence at 594 nm. To generate a functional strand incision and increase turn-over this assay is coupled to APE1.

[3] = target: T2, Endonuclease III-like protein 1 (Homo sapiens) (UniProt P78549); conditions: Hit No;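 note: enzyme assay tracking NTHL1 cutting and release of a quenched double-stranded DNA oligo substrate, read as fluorescence at 594 nm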
T2 sequence (whole entry): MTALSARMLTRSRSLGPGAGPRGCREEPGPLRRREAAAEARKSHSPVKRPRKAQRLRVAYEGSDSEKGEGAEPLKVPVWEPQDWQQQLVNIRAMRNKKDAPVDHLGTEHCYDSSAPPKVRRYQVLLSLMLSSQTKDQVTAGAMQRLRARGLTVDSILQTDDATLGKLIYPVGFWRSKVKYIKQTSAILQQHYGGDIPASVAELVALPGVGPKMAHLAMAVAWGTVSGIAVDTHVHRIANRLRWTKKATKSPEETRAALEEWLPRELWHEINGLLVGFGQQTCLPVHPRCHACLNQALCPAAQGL
Description: Inhibition of NTHL1 by quantifying inhibition of NTHL1-mediated cleavage and dissociation of quenched duplex DNA oligonucleotides, measured as fluorescence at 594 nm.

[4] = target: N-glycosylase/DNA lyase (Homo sapiens) (UniProt O15527); conditions: Compound Concentration 10.0 uM, Hit No;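 note: OGG1 cleavage of a quenched duplex DNA oligonucleotide, coupled to APE1 for strand incision, read as fluorescence at 594 nm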
Sequence of N-glycosylase/DNA lyase (Homo sapiens) (O15527 whole entry): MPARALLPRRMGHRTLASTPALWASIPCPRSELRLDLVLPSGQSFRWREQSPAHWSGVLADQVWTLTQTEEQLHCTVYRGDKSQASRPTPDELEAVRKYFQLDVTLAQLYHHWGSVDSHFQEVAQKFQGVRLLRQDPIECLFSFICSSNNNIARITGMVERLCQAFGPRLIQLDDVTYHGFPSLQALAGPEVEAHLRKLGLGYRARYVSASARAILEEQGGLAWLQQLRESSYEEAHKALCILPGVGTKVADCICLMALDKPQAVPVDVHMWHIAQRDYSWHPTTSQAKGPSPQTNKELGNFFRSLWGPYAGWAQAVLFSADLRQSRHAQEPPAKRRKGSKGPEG
Description: Inhibition of OGG1 by quantifying inhibition of OGG1-mediated cleavage and dissociation of quenched duplex DNA oligonucleotides, measured as fluorescence at 594 nm. To generate a functional strand incision and increase turn-over this assay is coupled to APE1.

[5] = target: T3, Single-strand selective monofunctional uracil DNA glycosylase (Homo sapiens) (UniProt Q53HV7); conditions: Hit No;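 note: enzymatic SMUG1 assay coupled with APE1, reading fluorescence at 594 nm released when a quenched double-stranded DNA oligonucleotide substrate is cleaved and separated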
T3 sequence (whole entry): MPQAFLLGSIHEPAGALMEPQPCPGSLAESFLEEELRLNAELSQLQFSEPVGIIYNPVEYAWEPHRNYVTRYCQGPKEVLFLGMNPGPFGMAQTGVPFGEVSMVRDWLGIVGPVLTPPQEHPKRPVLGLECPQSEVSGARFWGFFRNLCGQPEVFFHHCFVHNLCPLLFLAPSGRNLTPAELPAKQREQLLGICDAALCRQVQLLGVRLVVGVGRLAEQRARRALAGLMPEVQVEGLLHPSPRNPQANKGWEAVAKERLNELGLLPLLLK
Description: Inhibition of SMUG1 by quantifying inhibition of SMUG1-mediated cleavage and dissociation of quenched duplex DNA oligonucleotides, measured as fluorescence at 594 nm. To generate a functional strand incision and increase turn-over this assay is coupled to APE1.

[6] = target: G/T mismatch-specific thymine DNA glycosylase (Homo sapiens) (UniProt Q13569); conditions: Hit No;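 note: human TDG cleavage of quenched duplex DNA oligonucleotides coupled to APE1, strand release read as fluorescence at 594 nm, inhibition of TDG activity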
Sequence of G/T mismatch-specific thymine DNA glycosylase (Homo sapiens) (Q13569 whole entry): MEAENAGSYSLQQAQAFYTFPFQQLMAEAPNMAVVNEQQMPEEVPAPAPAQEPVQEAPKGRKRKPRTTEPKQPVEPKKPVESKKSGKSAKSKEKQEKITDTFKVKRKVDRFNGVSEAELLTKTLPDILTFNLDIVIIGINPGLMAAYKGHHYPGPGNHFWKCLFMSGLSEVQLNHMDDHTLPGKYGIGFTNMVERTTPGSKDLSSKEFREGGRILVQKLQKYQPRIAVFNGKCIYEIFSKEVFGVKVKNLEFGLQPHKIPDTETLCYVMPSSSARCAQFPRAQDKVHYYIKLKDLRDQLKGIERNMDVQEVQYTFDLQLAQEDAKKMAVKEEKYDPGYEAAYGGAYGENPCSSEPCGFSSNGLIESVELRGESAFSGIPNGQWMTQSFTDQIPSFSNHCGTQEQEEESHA
Description: Inhibition of TDG by quantifying inhibition of TDG-mediated cleavage and dissociation of quenched duplex DNA oligonucleotides, measured as fluorescence at 594 nm. To generate a functional strand incision and increase turn-over this assay is coupled to APE1.

[7] = target: Uracil-DNA glycosylase (Homo sapiens) (UniProt P13051); conditions: Hit No;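 note: UNG excision on a quenched double-stranded DNA oligo probe, with APE1 added for strand incision and turnover, read as fluorescence at 594 nm as strands separate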
Sequence of Uracil-DNA glycosylase (Homo sapiens) (P13051 whole entry): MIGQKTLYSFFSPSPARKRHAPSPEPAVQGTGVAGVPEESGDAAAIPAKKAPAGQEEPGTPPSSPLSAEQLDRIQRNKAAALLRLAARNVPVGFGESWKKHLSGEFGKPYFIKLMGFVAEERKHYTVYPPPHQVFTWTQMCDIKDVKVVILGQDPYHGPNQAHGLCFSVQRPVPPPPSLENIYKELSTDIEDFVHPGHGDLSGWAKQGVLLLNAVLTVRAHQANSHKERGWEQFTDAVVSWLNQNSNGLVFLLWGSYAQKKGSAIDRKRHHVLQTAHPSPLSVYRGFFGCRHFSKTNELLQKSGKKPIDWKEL
Description: Inhibition of UNG by quantifying inhibition of UNG-mediated cleavage and dissociation of quenched duplex DNA oligonucleotides, measured as fluorescence at 594 nm. To generate a functional strand incision and increase turn-over this assay is coupled to APE1.

[8] = target: Endonuclease 8-like 1 (Homo sapiens) (UniProt Q96FI4); conditions: Hit No;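 note: fluorescence at 594 nm from quenched duplex DNA oligonucleotides released by NEIL1 cleavage and strand separation, reported as reduction of this enzyme activity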
Sequence of Endonuclease 8-like 1 (Homo sapiens) (Q96FI4 whole entry): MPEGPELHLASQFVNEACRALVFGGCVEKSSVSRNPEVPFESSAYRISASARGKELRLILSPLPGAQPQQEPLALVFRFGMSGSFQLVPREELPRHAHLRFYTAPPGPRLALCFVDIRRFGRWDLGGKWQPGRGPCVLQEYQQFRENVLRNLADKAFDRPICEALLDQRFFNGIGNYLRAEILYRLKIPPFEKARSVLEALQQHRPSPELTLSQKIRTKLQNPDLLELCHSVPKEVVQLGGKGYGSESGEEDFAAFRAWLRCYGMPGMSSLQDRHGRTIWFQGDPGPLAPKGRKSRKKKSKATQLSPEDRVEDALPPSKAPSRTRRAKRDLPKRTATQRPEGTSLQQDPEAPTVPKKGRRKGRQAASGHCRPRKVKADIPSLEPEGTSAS
Description: Inhibition of NEIL1 by quantifying inhibition of NEIL1-mediated cleavage and dissociation of quenched duplex DNA oligonucleotides, measured as fluorescence at 594 nm.

[9] = target: T4, Endonuclease 8-like 2 (Homo sapiens) (UniProt Q969S2); conditions: Hit No;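 note: fluorescence at 594 nm reports NEIL2 cutting and release of a quenched double-stranded DNA oligo substrate, reduced signal read as inhibition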
T4 sequence (whole entry): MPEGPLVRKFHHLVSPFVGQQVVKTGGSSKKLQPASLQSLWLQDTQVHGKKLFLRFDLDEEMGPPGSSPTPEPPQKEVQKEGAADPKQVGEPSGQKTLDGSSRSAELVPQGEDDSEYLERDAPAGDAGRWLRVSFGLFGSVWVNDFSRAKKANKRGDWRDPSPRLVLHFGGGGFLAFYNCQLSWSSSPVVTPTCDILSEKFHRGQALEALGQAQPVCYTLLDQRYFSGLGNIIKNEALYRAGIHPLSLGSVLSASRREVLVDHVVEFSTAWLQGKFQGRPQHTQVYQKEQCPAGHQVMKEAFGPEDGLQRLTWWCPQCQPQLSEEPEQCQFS
Description: Inhibition of NEIL2 by quantifying inhibition of NEIL2-mediated cleavage and dissociation of quenched duplex DNA oligonucleotides, measured as fluorescence at 594 nm.

Sequence of Methyl-CpG-binding domain protein 4 (Homo sapiens) (O95243 whole entry, the tested form may be a part): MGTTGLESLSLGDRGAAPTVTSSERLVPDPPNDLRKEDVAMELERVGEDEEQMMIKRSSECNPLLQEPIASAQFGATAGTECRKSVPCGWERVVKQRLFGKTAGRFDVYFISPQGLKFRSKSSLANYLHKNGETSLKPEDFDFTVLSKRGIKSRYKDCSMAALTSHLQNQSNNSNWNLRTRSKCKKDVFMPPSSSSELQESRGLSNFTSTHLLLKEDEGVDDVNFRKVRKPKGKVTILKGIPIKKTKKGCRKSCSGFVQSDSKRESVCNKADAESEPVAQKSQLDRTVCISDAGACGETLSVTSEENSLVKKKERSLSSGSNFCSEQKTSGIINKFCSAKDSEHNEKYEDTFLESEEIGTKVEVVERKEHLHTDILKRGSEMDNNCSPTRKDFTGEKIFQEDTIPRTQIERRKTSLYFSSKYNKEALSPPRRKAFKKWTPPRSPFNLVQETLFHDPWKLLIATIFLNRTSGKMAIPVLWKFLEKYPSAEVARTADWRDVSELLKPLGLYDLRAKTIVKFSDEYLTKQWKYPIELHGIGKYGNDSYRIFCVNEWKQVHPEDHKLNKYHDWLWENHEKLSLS

inhibition ([1]; Compound Concentration 10.0 uM)	inhibition ([2]; Compound Concentration 10.0 uM)	inhibition ([3]; Compound Concentration 10.0 uM)	inhibition [4]	inhibition ([5]; Compound Concentration 10.0 uM)	inhibition ([6]; Compound Concentration 10.0 uM)	inhibition ([7]; Compound Concentration 10.0 uM)	inhibition ([8]; Compound Concentration 10.0 uM)	inhibition ([9]; Compound Concentration 10.0 uM)	inhibition ([1]; Compound Concentration 1.0 uM)	inhibition ([2]; Compound Concentration 1.0 uM)	inhibition ([8]; Compound Concentration 1.0 uM)	inhibition ([9]; Compound Concentration 1.0 uM)	inhibition ([3]; Compound Concentration 1.0 uM)	inhibition ([5]; Compound Concentration 1.0 uM)	inhibition ([6]; Compound Concentration 1.0 uM)	inhibition ([7]; Compound Concentration 1.0 uM)	Molecule
-7.12%	1.28%	1.48%	6.26%	20.8%	37.3%	2.17%	–	–	–	–	–	–	–	–	–	–	O[C@H]1CC[C@H](Nc2ncc3nc(Nc4c(F)cc(F)cc4F)n([C@H]4CCOC4)c3n2)CC1
-3.22%	3.09%	17.3%	-2.53%	-0.227%	3.04%	–	-0.204%	3.51%	–	–	–	–	–	–	–	–	O=C1N/C(=N/c2ccccc2F)S/C1=C\c1ccc(C(=O)O)cc1
–	–	–	–	–	–	–	–	–	0.784%	11.2%	5.55%	1.85%	-3.4%	19.8%	37.3%	1.47%	CC(C)(C)c1cc(NC(=O)Nc2ccc(-c3cn4c(n3)sc3cc(OCCN5CCOCC5)ccc34)cc2)no1
58.5%	-2.45%	-5.89%	–	10.3%	48%	-1.48%	–	–	–	–	–	–	–	–	–	–	Cc1nc(N2CC[C@@H](O)C2)ncc1-c1cc(C(F)(F)F)cc2[nH]ncc12
2.07%	2.84%	-8.34%	-3.29%	-0.808%	9.57%	–	-6.13%	-5.47%	–	–	–	–	–	–	–	–	CC(C)(C)NC[C@H](O)COc1nsnc1N1CCOCC1
-5.03%	6.32%	12.6%	12.9%	16.5%	38%	2.95%	–	–	–	–	–	–	–	–	–	–	Cc1nc(NC(=O)N2CCC[C@H]2C(N)=O)sc1-c1ccnc(C(C)(C)C(F)(F)F)c1
23.9%	0.369%	11.2%	–	-6.49%	47.4%	11.4%	1.19%	26.4%	–	–	–	–	–	–	–	–	CN(C)CCOc1ccc(-c2nc(-c3ccncc3)c(-c3ccc4c(c3)CC/C4=N\O)[nH]2)cc1
–	–	–	–	–	–	–	–	–	15.4%	6.26%	-0.655%	–	-6.19%	26.8%	50%	5.21%	C[C@@H](Oc1cc(-n2cnc3ccc(CN4CCN(C)CC4)cc32)sc1C(N)=O)c1ccccc1C(F)(F)F
68.9%	10.3%	-3.92%	4.51%	–	102%	5.16%	-7.26%	–	–	–	–	–	–	–	–	–	N[C@@H](Cc1cc(I)c(Oc2ccc(O)c(I)c2)c(I)c1)C(=O)O
6.19%	9.84%	-7.58%	–	25.7%	40.7%	3.73%	6.21%	1.04%	–	–	–	–	–	–	–	–	Cn1cc(-n2cnc3c(NCc4nc5cc(Cl)c(Cl)cc5[nH]4)nc(N4CCOCC4)nc32)cn1
-1.94%	3.6%	4.86%	-3.25%	-9.19%	-1.81%	–	6.47%	-1.98%	–	–	–	–	–	–	–	–	O=c1ccc2ccc(OCCCCN3CCN(c4cccc5sccc45)CC3)cc2[nH]1
1.36%	-7.01%	15.4%	–	11.3%	-1.07%	-3.01%	-2.36%	-3.15%	–	–	–	–	–	–	–	–	COc1ccc(NC(=O)[C@@H]2C[C@H](C)CC[C@H]2C(C)C)cc1
9.96%	10.6%	-2%	–	24.9%	48.4%	9.96%	0.666%	-5.96%	–	–	–	–	–	–	–	–	CNc1ncc2cc(-c3ccc(-c4ncccc4F)cc3Cl)c(=O)n(C[C@H]3OC[C@H](N)CO3)c2n1
-9.49%	7.44%	-6.14%	–	-1.58%	4.82%	–	0.834%	-1.98%	–	–	–	–	–	–	–	–	Cc1ccccc1N1CCN(CCc2nnc3n2CCCC3)CC1
-5.88%	-8.57%	-9.83%	–	8.81%	24.5%	8.95%	–	12.5%	–	–	–	–	–	–	–	–	COc1cc(-c2cn([C@H]3CCc4ccccc4N(CC(F)(F)F)C3=O)nn2)ccc1-n1ccc(C)n1
0.552%	-5.22%	3.04%	–	-4.7%	0.841%	-7.93%	-2.96%	–	–	–	–	–	–	–	–	–	O=C1c2cccc3c2[C@H](CCC3)CN1[C@@H]1CN2CCC1CC2
-1.99%	-5.27%	0.568%	–	-8.55%	11.1%	-5.19%	0.158%	-4.17%	–	–	–	–	–	–	–	–	Cc1cccc(CCN2CCC(C(=O)c3ccc(NS(C)(=O)=O)cc3)CC2)n1
–	–	–	–	–	–	–	–	–	18.6%	8.56%	8.59%	2.93%	-4.79%	12.2%	44.4%	-0.67%	Cc1cc(F)c(C(=O)Nc2cccc(-c3nncn3C(C)C)n2)cc1-n1cnc(C2CC2)c1
9.67%	8.4%	14.6%	-2.03%	–	8.08%	-2.47%	7.27%	2.2%	–	–	–	–	–	–	–	–	H-LVVYPWT-OH
–	–	–	–	–	–	–	–	–	43.9%	11.7%	–	3.69%	-0.432%	20.7%	54.4%	4.99%	Cc1c[nH]c2nccc(Oc3c(F)cc(Nc4cc(Cl)nc(N)n4)cc3F)c12
4.59%	–	7.92%	–	3.64%	17.7%	0.948%	–	-7.89%	–	16%	–	–	-2%	19.3%	54.6%	1.8%	Cc1cc(NC(=O)c2cccc(S(F)(F)(F)(F)F)c2)cc(-n2ccn3nc(-c4cccnc4)cc23)c1
10.3%	10.7%	24.5%	–	2.42%	9.39%	-8.59%	-2.51%	-7.74%	–	–	–	–	–	–	–	–	N[C@@]1(C(=O)O)CO[C@H]2[C@H](C(=O)O)[C@H]21
-3.9%	2.74%	-0.61%	–	13.9%	40.3%	-0.0214%	4.76%	0.236%	–	–	–	–	–	–	–	–	CC(C)C(=O)Nc1n[nH]c2cc(-c3cccc(NS(=O)(=O)C4CC4)c3)ccc12
10.2%	3.09%	17.1%	-5.28%	–	9.87%	-1.95%	11%	7.55%	–	–	–	–	–	–	–	–	COc1ccccc1S(=O)(=O)Nc1ccc(C)cc1Oc1ccc2c(N)nccc2c1

Molecule	inhibition ([1]; Compound Concentration 10.0 uM)	inhibition ([2]; Compound Concentration 10.0 uM)	inhibition ([3]; Compound Concentration 10.0 uM)	inhibition [4]	inhibition ([5]; Compound Concentration 10.0 uM)	inhibition ([6]; Compound Concentration 10.0 uM)	inhibition ([7]; Compound Concentration 10.0 uM)	inhibition ([8]; Compound Concentration 10.0 uM)	inhibition ([9]; Compound Concentration 10.0 uM)	inhibition ([1]; Compound Concentration 1.0 uM)	inhibition ([2]; Compound Concentration 1.0 uM)	inhibition ([8]; Compound Concentration 1.0 uM)	inhibition ([9]; Compound Concentration 1.0 uM)	inhibition ([3]; Compound Concentration 1.0 uM)	inhibition ([5]; Compound Concentration 1.0 uM)	inhibition ([6]; Compound Concentration 1.0 uM)	inhibition ([7]; Compound Concentration 1.0 uM)
Clc1ccc(OC[C@H]2CCN2)cn1	-2.21%	-6.13%	5.52%	-5.75%	–	–	-3.96%	-0.584%	-6.72%	–	–	–	–	–	–	–	–
CN1C2CCCC1CC(Nc1ccccc1Br)C2 (stereo not given)	11.1%	6.82%	24.5%	–	-9%	-8.71%	-6.41%	-3.4%	-3.41%	–	–	–	–	–	–	–	–
